The results in this text go back to ChEMBL document CHEMBL1148682, “Cyclopentane-based human NK1 antagonists. Part 2: development of potent, orally active, water-soluble derivatives” (Bioorg Med Chem Lett, 2006).

The data set can be described thus: Dissociation constant, pKa of the compound. The format is physicochemical.
Regarding `NC(=O)CNC1CCC(OCc2cc(C(F)(F)F)cc(C(F)(F)F)c2)C1c1ccccc1` (configuration not stated), the pKa – broadly, the negative logarithm of the acid dissociation constant – worked out at 6.6.
The figure for `CN(CC(N)=O)C1CCC(OCc2cc(C(F)(F)F)cc(C(F)(F)F)c2)C1c1ccccc1` (configuration not stated) is 5.8; for `C[C@@H](O[C@H]1CC[C@@H](N(C)CC(N)=O)[C@@H]1c1ccc(F)cc1)c1cc(C(F)(F)F)cc(C(F)(F)F)c1` it is 5.3; for `C[C@@H](O[C@H]1OCCN(Cc2n[nH]c(=O)[nH]2)[C@H]1c1ccc(F)cc1)c1cc(C(F)(F)F)cc(C(F)(F)F)c1` [APREPITANT] it is less than 3.5.
The figure for `CNC(=O)CN(C)[C@@H]1CC[C@H](O[C@H](C)c2cc(C(F)(F)F)cc(C(F)(F)F)c2)[C@H]1c1ccc(F)cc1` is 5.3; for `C[C@@H](O[C@H]1CC[C@@H](N(C)Cc2n[nH]c(O)n2)[C@@H]1c1ccc(F)cc1)c1cc(C(F)(F)F)cc(C(F)(F)F)c1` it is 4.7.
To `C[C@@H](O[C@H]1CC[C@@H](N(C)Cc2c[nH]c(O)n2)[C@@H]1c1ccc(F)cc1)c1cc(C(F)(F)F)cc(C(F)(F)F)c1` belongs 6.2.
